Results as given in article PMC5688156, “The natural product carolacton inhibits folate-dependent C1 metabolism by targeting FolD/MTHFD” (Nature Communications, 2017).
Like-named read-outs stand apart in the source and are kept apart here.

Key:
hsMTHFD1_DC = target: T1, hsMTHFD1_DC (Homo sapiens, UniProt P11586); assay: hsMTHFD1_DC dehydrogenase (DH) enzyme assay; format: biochemical; details: hsMTHFD1 DC301
T1 construct: hsMTHFD1 DC301; His-tag (TEV-cleavable, vector pHis-TEV); made in house; host or cells: E. coli BL21 (DE3)
T1 sequence (P11586 2-291 limits assumed): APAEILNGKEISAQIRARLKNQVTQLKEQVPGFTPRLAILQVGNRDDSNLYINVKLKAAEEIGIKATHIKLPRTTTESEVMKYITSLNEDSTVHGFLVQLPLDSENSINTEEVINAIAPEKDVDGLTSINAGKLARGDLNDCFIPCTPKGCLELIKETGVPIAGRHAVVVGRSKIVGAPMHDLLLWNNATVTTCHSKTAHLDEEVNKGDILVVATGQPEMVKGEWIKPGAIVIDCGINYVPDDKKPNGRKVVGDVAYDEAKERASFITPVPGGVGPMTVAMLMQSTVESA
Method: (§1) (6R,S)-5,10-Methylene-5,6,7,8-tetrahydrofolic acid ((6R,S)-5,10-CH2-THF) calcium salt and (6R,S)-5,10-Methenyl-5,6,7,8-tetrahydrofolic acid ((6R,S)-5,10-CH=THF) chloride were purchased from Schircks Laboratories (Bauma, Switzerland) and used as substrates for FolD dehydrogenase and cyclohydrolase enzyme assays, respectively. Only the R-isomer, which accounts for 50% of (6R,S)-5,10-CH2-THF and (6R,S)-5,10-CH=THF, respectively, is used by the enzyme. (6R,S)-5,10-CH2-THF was dissolved in N2-spargeled basic buffer (50 mM Tris-HCl (pH 8.0), 100 mM β-mercaptoethanol) as described by Varshney et al.[25]. (6R,S)-5,10-CH=THF was dissolved in DMSO as a 100 mM stock solution.
Because FolD is a bifunctional enzyme, dehydrogenase and cyclohydrolase activities were determined for FolD enzyme kinetics, respectively. The dehydrogenase activity of FolD was assayed for its substrate 5,10-CH2-THF and cofactor NADP^+ (in the case of MTHFD2, NAD^+ was used as the cofactor) based on monitoring the formation of 5,10-CH=THF, while the cyclohydrolase activity of FolD was determined for its substrate 5,10-CH=THF by monitoring the hydrolysis of […]. The enzyme kinetics for the dehydrogenase activity of all FolDs except hsMTHFD1_DC were determined at 30 °C in 50 mM Tris-HCl (pH 7.5), 30 mM β-mercaptoethanol. The hsMTHFD1_DC dehydrogenase activity was measured in 25 mM MOPS (pH 7.3), 30 mM β-mercaptoethanol at 30 °C. To measure the enzyme kinetic constants for 5,10-CH2-THF, for example in the case of ecFolD, the NADP concentration was fixed at 1 mM and the concentration of 5,10-CH2-THF varied from 5 to 1500 μM (R-isomer). Similarly, to measure the kinetic constants of ecFolD for NADP^+, the concentration of 5,10-CH2-THF (R-isomer) was fixed at 1 mM and the concentration of NADP^+ varied from 10 to 1500 μM. For different FolDs, the varied concentration range of substrates could be different. […] To monitor the formation of 5,10-CH=THF, the absorbance of the reaction mixture was monitored at 350 nm in micro UV cuvettes (BRAND, Essex, Connecticut, USA). The concentration of 5,10-CH=THF produced in the reaction was determined using an extinction co-efficient of 0.0249 μM^−1 cm^−1. […] The consumption of 5,10-CH=THF was measured by recording the absorbance of the reactions at 355 nm using the TECAN Infinite 200 PRO equipped with a monochromator. […] The inhibition constants (K i) of carolacton on FolD were determined by measuring the apparent K m when adding certain amounts of carolacton to the enzyme reactions. […] To compare the inhibition effects of carolacton between the different FolDs, the half maximal inhibitory concentration (IC50) of carolacton on the same amount of enzyme was determined for FolDs involved in this study. […]

ecFolD ΔK54R55 = target: T2, ecFolD ΔK54R55 (Escherichia coli, UniProt P24186, DEL54-55); assay: ecFolD ΔK54R55 mutant dehydrogenase (DH) enzyme assay; format: biochemical, E. coli
T2 construct: His-tag (TEV-cleavable, vector pHis-TEV); made in house; host or cells: E. coli BL21 (DE3)
Method: as §1
Because FolD is a bifunctional enzyme, dehydrogenase and cyclohydrolase activities were determined for FolD enzyme kinetics, respectively. The dehydrogenase activity of FolD was assayed for its substrate 5,10-CH2-THF and cofactor NADP^+ (in the case of MTHFD2, NAD^+ was used as the cofactor) based on monitoring the formation of 5,10-CH=THF, while the cyclohydrolase activity of FolD was determined for its substrate 5,10-CH=THF by monitoring the hydrolysis of […]. The enzyme kinetics for the dehydrogenase activity of all FolDs except hsMTHFD1_DC were determined at 30 °C in 50 mM Tris-HCl (pH 7.5), 30 mM β-mercaptoethanol. […]

Compound: CO[C@H](CC(=O)O)[C@@H](C)C(=O)[C@H](C)/C=C(\C)[C@H]1OC(=O)[C@H](O)[C@H](O)/C=C/[C@H](C)CCC[C@@H]1C [carolacton]
- IC50 (hsMTHFD1_DC; 10 nM enzyme, read-out: IC50, carolacton inhibition on DH activity): 38 nM
- IC80 (hsMTHFD1_DC; 10 nM enzyme, read-out: IC80, carolacton inhibition on DH activity): 77.6 nM
- Ki (hsMTHFD1_DC; vs 5,10-CH2-THF, read-out: Ki (5,10-CH2-THF), carolacton inhibition on DH activity): 5.93 nM
- Ki (hsMTHFD1_DC; vs NADP+, read-out: Ki (NADP+), carolacton inhibition on DH activity): 58.7 nM
- sensitivity of residual DH activity to carolacton (ecFolD ΔK54R55): completely insensitive
